Measured values from PMC9088062 (2018).

How the values were obtained:
[1] = tested on: Tcy2 (DNA, G4) GGTTGGTTGGTTGGTTTT; experiment: FAM fluorescence quenching; settings: 10 mM Tris-acetate pH 8.0, room temperature, 25 nM DNA
[2] = tested on: Tcy2 (DNA, G4) GGTTGGTTGGTTGGTTTT; experiment: circular dichroism; settings: 10 mM MOPS pH 7.0, room temperature, 5 min; 1 μM DNA, 1 ppm cyromazine
[3] = tested on: Random DNA (DNA, single strand) ATCGACATGTAGCCGATGGC; experiment: FAM fluorescence quenching; settings: 10 mM Tris-acetate pH 8.0, room temperature; 25 nM DNA; highest tested 100 ppb
[4] = tested at 50 ppb, no fluorescence change

SMILES	binding [1, 4]	other results
Cc1ccc(N=CN(C)C=Nc2ccc(C)cc2C)c(C)c1	no	
Cc1nc(C)c(Cl)c(O)c1Cl	no	
Nc1nc(N)nc(NC2CC2)n1		binding [2]: yes; binding ([1]; 2 min, static quenching): yes; binding [3]: no
O=C(N[C@H](CO)[C@H](O)c1ccc([N+](=O)[O-])cc1)C(Cl)Cl	no	

Continued, in another order:

binding [1, 4]	SMILES	other results
no	CN(C)[C@@H]1C(=O)C(C(N)=O)=C(O)[C@@]2(O)C(=O)C3=C(O)c4c(O)cccc4[C@@](C)(O)[C@H]3[C@H](O)[C@@H]12	
no	CS(=O)(=O)c1ccc([C@@H](O)[C@@H](CO)NC(=O)C(Cl)Cl)cc1	
no	c1ccc([C@H]2CN3CCSC3=N2)cc1	
